Experimental data from PubChem BioAssay (NCI).
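Cultured in 96-well plates, cells were exposed to test compound for 48 hours across five concentrations. At the GI50, growth is halved. TGI: total growth inhibition.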

Tests used:
Assay in all cases: growth of human tumour cells (NCI), 48 h
786-0 renal = tested on: 786-0 renal
A498 renal = tested on: A498 renal
A549 NSCLC = tested on: A549 NSCLC
ACHN renal = tested on: ACHN renal
BT-549 breast = tested on: BT-549 breast
CAKI-1 renal = tested on: CAKI-1 renal
CCRF-CEM leukemia = tested on: CCRF-CEM leukemia
COLO 205 colon = tested on: COLO 205 colon
DU-145 prostate = tested on: DU-145 prostate
EKVX NSCLC = tested on: EKVX NSCLC
HCC-2998 colon = tested on: HCC-2998 colon
HCT-116 colon = tested on: HCT-116 colon
HCT-15 colon = tested on: HCT-15 colon
HOP-62 NSCLC = tested on: HOP-62 NSCLC
HOP-92 NSCLC = tested on: HOP-92 NSCLC
HS 578T breast = tested on: HS 578T breast
HT29 colon = tested on: HT29 colon
IGROV1 ovarian = tested on: IGROV1 ovarian
K-562 leukemia = tested on: K-562 leukemia
KM12 colon = tested on: KM12 colon
LOX IMVI melanoma = tested on: LOX IMVI melanoma
M14 melanoma = tested on: M14 melanoma
MALME-3M melanoma = tested on: MALME-3M melanoma
MCF7 breast = tested on: MCF7 breast
MDA-MB-231 breast = tested on: MDA-MB-231 breast
MDA-MB-435 = tested on: MDA-MB-435
MOLT-4 leukemia = tested on: MOLT-4 leukemia
NCI-H226 lung = tested on: NCI-H226 lung
NCI-H23 lung = tested on: NCI-H23 lung
NCI-H460 lung = tested on: NCI-H460 lung
NCI-H522 lung = tested on: NCI-H522 lung
NCI/ADR-RES ovarian = tested on: NCI/ADR-RES ovarian
OVCAR-3 ovarian = tested on: OVCAR-3 ovarian
OVCAR-5 ovarian = tested on: OVCAR-5 ovarian
OVCAR-8 ovarian = tested on: OVCAR-8 ovarian
PC-3 prostate = tested on: PC-3 prostate
RPMI-8226 leukemia = tested on: RPMI-8226 leukemia
RXF 393 renal = tested on: RXF 393 renal
SF-268 CNS = tested on: SF-268 CNS
SF-295 CNS = tested on: SF-295 CNS
SF-539 CNS = tested on: SF-539 CNS
SK-MEL-2 melanoma = tested on: SK-MEL-2 melanoma
SK-MEL-28 melanoma = tested on: SK-MEL-28 melanoma
SK-MEL-5 melanoma = tested on: SK-MEL-5 melanoma
SN12C renal = tested on: SN12C renal
SNB-19 CNS = tested on: SNB-19 CNS
SNB-75 CNS = tested on: SNB-75 CNS
SR leukemia = tested on: SR leukemia
SW-620 colon = tested on: SW-620 colon
T-47D breast = tested on: T-47D breast
TK-10 renal = tested on: TK-10 renal
U251 CNS = tested on: U251 CNS
UACC-257 melanoma = tested on: UACC-257 melanoma
UACC-62 melanoma = tested on: UACC-62 melanoma
UO-31 renal = tested on: UO-31 renal

Cc1ccc(N(/C=C/C(=O)C(F)(F)F)CC(=O)c2ccc(Cl)c(Cl)c2)cc1
GI50 (786-0 renal): 13.5 µM | TGI (786-0 renal): 26.3 µM | GI50 (A498 renal): 8.05 µM | TGI (A498 renal): 20.9 µM | GI50 (A549 NSCLC): 9.37 µM | TGI (A549 NSCLC): 21.3 µM | GI50 (ACHN renal): 12.2 µM | TGI (ACHN renal): 24.6 µM | GI50 (BT-549 breast): 2.22 µM | TGI (BT-549 breast): 11.2 µM | GI50 (CAKI-1 renal): 12.4 µM | TGI (CAKI-1 renal): 24.9 µM | GI50 (CCRF-CEM leukemia): 4.89 µM | TGI (CCRF-CEM leukemia): 20.8 µM | GI50 (COLO 205 colon): 10 µM | TGI (COLO 205 colon): 21.6 µM | GI50 (DU-145 prostate): 5.77 µM | TGI (DU-145 prostate): 20.3 µM | GI50 (EKVX NSCLC): 3.54 µM | TGI (EKVX NSCLC): 18.9 µM | GI50 (HCC-2998 colon): 1.45 µM | TGI (HCC-2998 colon): 14.8 µM | GI50 (HCT-116 colon): 4.3 µM | TGI (HCT-116 colon): 17.7 µM | GI50 (HCT-15 colon): 3.64 µM | TGI (HCT-15 colon): 14.5 µM | GI50 (HOP-62 NSCLC): 12.3 µM | TGI (HOP-62 NSCLC): 24.8 µM | GI50 (HOP-92 NSCLC): 8.77 µM | TGI (HOP-92 NSCLC): 21.1 µM | GI50 (HS 578T breast): 2.35 µM | TGI (HS 578T breast): 17.1 µM | GI50 (HT29 colon): 4.73 µM | TGI (HT29 colon): 17.9 µM | GI50 (IGROV1 ovarian): 5.75 µM | TGI (IGROV1 ovarian): 18.6 µM | GI50 (K-562 leukemia): 3.37 µM | TGI (K-562 leukemia): 11.7 µM | GI50 (KM12 colon): 3.53 µM | TGI (KM12 colon): 15 µM | GI50 (LOX IMVI melanoma): 10.1 µM | TGI (LOX IMVI melanoma): 21.8 µM | GI50 (M14 melanoma): 4.79 µM | TGI (M14 melanoma): 18.6 µM | GI50 (MALME-3M melanoma): 6 µM | TGI (MALME-3M melanoma): 20.6 µM | GI50 (MCF7 breast): 7.27 µM | TGI (MCF7 breast): 20.2 µM | GI50 (MDA-MB-231 breast): 3.12 µM | TGI (MDA-MB-231 breast): 17.9 µM | GI50 (MDA-MB-435): 1.92 µM | TGI (MDA-MB-435): 3.82 µM | GI50 (MOLT-4 leukemia): 4.48 µM | TGI (MOLT-4 leukemia): 19.9 µM | GI50 (NCI-H226 lung): 14.9 µM | TGI (NCI-H226 lung): 28.7 µM | GI50 (NCI-H23 lung): 10.3 µM | TGI (NCI-H23 lung): 21.9 µM | GI50 (NCI-H460 lung): 8.73 µM | TGI (NCI-H460 lung): 21 µM | GI50 (NCI-H522 lung): 5.16 µM | TGI (NCI-H522 lung): 17.8 µM | GI50 (NCI/ADR-RES ovarian): 2.76 µM | TGI (NCI/ADR-RES ovarian): 13.4 µM | GI50 (OVCAR-3 ovarian): 3.19 µM | TGI (OVCAR-3 ovarian): 16.3 µM | GI50 (OVCAR-5 ovarian): 4.7 µM | TGI (OVCAR-5 ovarian): 20.6 µM | GI50 (OVCAR-8 ovarian): 14.1 µM | TGI (OVCAR-8 ovarian): 27.1 µM | GI50 (PC-3 prostate): 7.06 µM | TGI (PC-3 prostate): 20 µM | GI50 (RPMI-8226 leukemia): 10.8 µM | TGI (RPMI-8226 leukemia): 27 µM | GI50 (RXF 393 renal): 3.82 µM | TGI (RXF 393 renal): 19 µM | GI50 (SF-268 CNS): 12.5 µM | TGI (SF-268 CNS): 25 µM | GI50 (SF-295 CNS): 4.24 µM | TGI (SF-295 CNS): 16.6 µM | GI50 (SF-539 CNS): 2.77 µM | TGI (SF-539 CNS): 17 µM | GI50 (SK-MEL-2 melanoma): 3.26 µM | TGI (SK-MEL-2 melanoma): 16.1 µM | GI50 (SK-MEL-28 melanoma): 11.2 µM | TGI (SK-MEL-28 melanoma): 23.2 µM | GI50 (SK-MEL-5 melanoma): 5.64 µM | TGI (SK-MEL-5 melanoma): 19.6 µM | GI50 (SN12C renal): 13.1 µM | TGI (SN12C renal): 25.8 µM | GI50 (SNB-19 CNS): 12.9 µM | TGI (SNB-19 CNS): 25.5 µM | GI50 (SNB-75 CNS): 1.67 µM | TGI (SNB-75 CNS): 16.4 µM | GI50 (SR leukemia): 2.97 µM | TGI (SR leukemia): 12.6 µM | GI50 (SW-620 colon): 2.88 µM | TGI (SW-620 colon): 15.2 µM | GI50 (T-47D breast): 12.2 µM | TGI (T-47D breast): 25.8 µM | GI50 (TK-10 renal): 12.1 µM | TGI (TK-10 renal): 24.5 µM | GI50 (U251 CNS): 10.7 µM | TGI (U251 CNS): 22.6 µM | GI50 (UACC-257 melanoma): 10.3 µM | TGI (UACC-257 melanoma): 22 µM | GI50 (UACC-62 melanoma): 5.57 µM | TGI (UACC-62 melanoma): 19 µM | GI50 (UO-31 renal): 5.77 µM | TGI (UO-31 renal): 19.1 µM
